Test results taken from patent US10822331B2, “Processes for preparing ATR inhibitors” (Vertex Pharmaceuticals Incorporated, priority 2011, dated 2020).

Test system: HCT116 colorectal cancer cells
Experiment: Cisplatin sensitization assay (96 h MTS cell viability)
Type: cell-based
Details: concentration of compound required to reduce the IC50 of Cisplatin alone by at least 3-fold, HCT116, 96 h
Experimental: Compounds can be screened for their ability to sensitize HCT116 colorectal cancer cells to Cisplatin using a 96 h cell viability (MTS) assay. […] Compounds and Cisplatin are then both added simultaneously to the cell media in 2-fold serial dilutions from a top final concentration of […] as a full matrix of concentrations in a final cell volume of 200 μl, and the cells are then incubated at 37° C. in 5% CO2. After 96 h, 40 μl of MTS reagent (Promega G358a) is added to each well and the cells are incubated for 1 h at 37° C. in 5% CO2.

In the case of `[2H]C([2H])(NC)c1ccc(-c2cc(-c3nc(-c4ccc(S(=O)(=O)C(C)C)cc4)cnc3N)on2)cc1` [II-1, 3-[3-[4-[dideuterio(methylamino)methyl]phenyl]isoxazol-5-yl]-5-(4-isopropylsulfonylphenyl)pyrazin-2-amine], the Cisplatin sensitization is reported as 39 nM.
`[2H]C([2H])([2H])NC([2H])([2H])c1ccc(-c2cc(-c3nc(-c4ccc(S(=O)(=O)C(C)C)cc4)cnc3N)on2)cc1` [II-2, 3-[3-[4-[dideuterio-(trideuteriomethylamino)methyl]phenyl]isoxazol-5-yl]-5-(4-isopropylsulfonylphenyl)pyrazin-2-amine] gave a Cisplatin sensitization of 29 nM.
`[2H]C([2H])([2H])NCc1ccc(-c2cc(-c3nc(-c4ccc(S(=O)(=O)C(C)C)cc4)cnc3N)on2)cc1` [II-3, 5-(4-isopropylsulfonylphenyl)-3-[3-[4-[(trideuteriomethylamino)methyl]phenyl]isoxazol-5-yl]pyrazin-2-amine] showed a Cisplatin sensitization of 39 nM.
